Data: ChEMBL document CHEMBL1125398, “Antiestrogens. 3. Estrogen receptor affinities and antiproliferative effects in MCF-7 cells of phenolic analogues of trioxifene, [3,4-dihydro-2-(4- methoxyphenyl)-1-naphthalenyl][4-[2-(1-pyrrolidinyl)ethoxy]- phenyl]methanone” (J Med Chem, 1992)

Experiments:
[1] = organism: Homo sapiens; experiment: Inhibition of Calmodulin activation of cyclic nucleotide phosphodiesterase; type: functional; conditions: concentration not given here
[2] = molecular target: Estrogen receptor (Homo sapiens, UniProt Q92731+P03372); conditions: mcf7
Description: Displacement of [3H]estradiol from Estrogen receptor in MCF-7 cells

SMILES | inhibition [1] [%] | IC50 [2] [nM]
O=C(C1=C(c2ccccc2)CCc2cc(O)ccc21)c1ccc(OCCN2CCCCC2)cc1 | 6 | 1650
Oc1ccc2c(c1)C(c1ccc(OCCN3CCCCC3)cc1)c1c-2ccc2cc(O)ccc12 (configuration not stated) | 18 | 125
O=C(c1ccc(OCCN2CCCCC2)cc1)c1c(-c2ccc(O)cc2)sc2cc(O)ccc12 | 6 | 
O=C(c1ccc(OCCN2CCCC2)cc1)c1c(-c2ccc(O)cc2)sc2cc(O)ccc12 [LY-117018] | 3 | 120
Oc1ccc2c3c(ccc2c1)-c1ccccc1C3c1ccc(OCCN2CCCCC2)cc1 (configuration not stated) | 22 | 740
CC/C(=C(\c1ccccc1)c1ccc(OCCN(C)C)cc1)c1ccccc1 | 44 | 
O=C(C1=C(c2ccc(O)cc2)CCc2cc(O)ccc21)c1ccc(OCCN2CCCCC2)cc1 | 2 | 73
